# Assay results reported in publication PMC4335544 (Critical Care, 2015).
# Key:
# [1] = cited from earlier work
# Excerpt: Vancomycin, which is the drug of choice for treating beta-lactam resistant Gram-positive bacteria, is frequently prescribed to ECMO patients.
# [2] = Spontaneous drug degradation in control polypropylene tubes (whole blood); assay type: in vitro ADME; settings: human whole blood, polypropylene tubes under agitation at 25°C, up to 48 hours; HPLC-UV or immuno-enzymatic method
# [3] = 37°C, 4.5 L/minute
# Procedure: Whole ECMO circuits (Maquet®, Orleans, France) comprising a Quadrox® membrane oxygenator, a centrifugal pump, a heat exchanger and PVC tubing were used for ex vivo tests. All components of the circuit were treated with heparin (Bioline coating®, Maquet). Drug-free human whole blood (800 mL) was used to prime the circuit. In order to replicate the in vivo operating conditions, the temperature of the circulating blood was set at 37°C and circuit flow rate at 4.5 L/minute.
# During ex vivo ECMO runs, serial post-membrane blood samples were obtained at 30 minutes, 1 hour, 2 hours, 3 hours, 4 hours, 5 hours, 24 hours and 48 hours after drug introduction into the circuit. Until analysis, samples were kept at 4°C and plasma separated and frozen at −20°C. To determine spontaneous drug degradation, blood containing identical concentrations of the drugs studied was kept in polypropylene tubes under agitation at 25°C for the same time before measurements.
# Propofol and midazolam concentrations were measured using high performance liquid chromatography with an ultra-violet detector (Waters, Milford, MA, USA).
# Changes of mean drug concentrations over time were compared between control and experimental conditions by modeling using a linear mixed effect model. […] Model choice was guided by the lowest Akaike criteria value. The mixed effect model was then fitted with R software version 3.0.2 and the ‘nlme’ library [10].
# [4] = octanol/water; ref 13-16 (Drug Bank); cited from earlier work
# [5] = Protocol: To further explore the role of temperature, oxygen exposure and PVC surfaces on propofol loss in the ECMO circuit, the following experiments were conducted. A polypropylene tube containing human whole blood was spiked with the propofol stock solution to obtain a concentration of […]. The effect of the temperature, oxygen exposure and contact with PVC surfaces were assessed by incubating the tube at 37°C, applying oxygen (1 L/minute) for 10 seconds to the preparation and by distributing the preparation into 5-cm PVC tubes, respectively. Polypropylene tubes containing blood and propofol at the same concentration were stored at room temperature and were used as controls. Propofol concentrations were measured at 0 minutes, 5 minutes, 10 minutes, 15 minutes, 20 minutes, 25 minutes, 30 minutes and 45 minutes from each preparation. These experiments were conducted in triplicate.
Compound,"decrease in concentration, used circuit ([1]; circuit which had been running for five days, ref 3 (Dagan et al.)) [%]","decrease in concentration, new circuit ([1]; drug introduced in a new circuit, ref 3 (Dagan et al.)) [%]","levels in ECMO circuit, result in words ([1]; ex vivo models, 24 hours, ref 20 (Mehta et al.), ref 19 (Shekar et al.))","decrease in concentration, neonatal and pediatric circuits ([1]; neonatal and pediatric circuits, ref 6 (Wildschut et al.))",concentration over time in control polypropylene tubes [2],"concentration in ECMO circuit, result in words ([3]; during the 48 hours of the protocol, human whole blood, immuno-enzymatic method, n = 3 circuits)",Partition coefficient (log P) [4],"loss of propofol on contact with PVC tubing ([5]; after 45 minutes, human whole blood distributed into 5-cm PVC tubes, propofol 2 μg/L as printed, mean of n = 3) [%]","loss of propofol on oxygen exposure ([5]; after 45 minutes, human whole blood in polypropylene tube, oxygen 1 L/minute for 10 seconds, propofol 2 μg/L as printed, mean of n = 3) [%]","effect of heating to 37°C on propofol concentration ([5]; polypropylene tube with human whole blood at 37°C, up to 45 minutes, n = 3)","baseline concentration lost in ECMO circuit ([3]; 30 minutes after introduction, Maquet circuit, Quadrox oxygenator, PVC tubing, heparin coating, 800 mL human whole blood, propofol 2 μg/mL, HPLC-UV, mean of n = 3 circuits) [%]","initial concentration remaining in ECMO circuit ([3]; after 5 hours, human whole blood, HPLC-UV, mean of n = 3 circuits) [%]","fraction remaining in ECMO circuit ([3]; beyond 24 hours, human whole blood, HPLC-UV, n = 3 circuits)","baseline concentration detected in ECMO circuit ([3]; at 30 minutes, human whole blood, HPLC-UV, mean of n = 3 circuits) [%]","baseline concentration remaining in ECMO circuit ([3]; at 24 hours, human whole blood, midazolam HPLC-UV, cyclosporine immuno-enzymatic method, mean of n = 3 circuits) [%]"
Vancomycin,11,36,remained unchanged,up to 46%,remained stable,remained stable,–,–,–,–,–,–,–,–,–
CC(C)c1cccc(C(C)C)c1O [Propofol],–,–,–,–,remained stable,–,4.0,85,70,no effect,70,11,negligible,–,–
Cc1ncc2n1-c1ccc(Cl)cc1C(c1ccccc1F)=NC2 [Midazolam],–,–,–,–,remained stable,–,3.9,–,–,–,–,–,–,54,11
